Values after ≈ are worked out from the molar mass of the structure shown. Active and inactive are the calls of the source. The calls are words filed in the database; no cut-off is given here.

Test [1] is described as follows: Inhibition of isocitrate lyase.
In test [2] the test system is K562. Put plainly: Cytotoxicity against human K562 cells. In kind it is functional. To be noted: for CC50: read-out: LC50 (the source's name).

Turning to `CCCC(=O)O[C@H]1C[C@]2(C)[C@H](C=C(C)[C@H](OC(C)=O)[C@H](O)[C@H]2OC(=O)CCC)[C@H]2[C@@H](C(C)C)[C@@H](OC(C)=O)C[C@]21C` [GAGUNIN G], the IC50 in test [1] came to 55 µg/mL (≈ 95 µM). For the same compound, the CC50 in test [2] came out at 0.45 µg/mL (≈ 0.778 µM).
In the same order, the values of `CCCC(=O)O[C@@H]1[C@H](C(C)C)[C@@H]2[C@H]3C=C(C)[C@H](O)[C@H](OC(=O)CC)[C@@H](OC(=O)CCC)[C@]3(C)C[C@H](OC(=O)CCC)[C@]2(C)[C@H]1OC(=O)CCC` [GAGUNIN Q] are 55 µg/mL (≈ 77.8 µM) and above 50 µg/mL.
Take `CCCC(=O)O[C@@H]1[C@H](C(C)C)[C@@H]2[C@H]3C=C(C)[C@H](O)[C@H](OC(C)=O)[C@@H](OC(=O)CCC)[C@]3(C)C[C@H](OC(=O)CC)[C@]2(C)[C@H]1OC(=O)CCC` [GAGUNIN H]: the half-maximal inhibitory concentration (IC50) in test [1] stood at 55 µg/mL (≈ 81 µM). For the same compound, the CC50 in test [2] is 10 µg/mL (≈ 14.7 µM).
As for `CCCC(=O)O[C@H]1C[C@]2(C)[C@H]([C@H]1C(C)C)[C@H]1C=C(C)[C@H](OC(C)=O)[C@H](O)[C@@H](OC(=O)CCC)[C@]1(C)C[C@@H]2OC(=O)CCC` [GAGUNIN F], in test [1], the IC50 is 55 µg/mL (≈ 90.6 µM). Besides, the CC50 in test [2] stood at 0.25 µg/mL (≈ 0.412 µM).
For the compound `CCCC(=O)O[C@H]1C[C@]2(C)[C@H]([C@H]1C(C)C)[C@H]1C=C(C)[C@H](O)[C@H](OC(C)=O)[C@@H](OC(=O)CCC)[C@]1(C)C[C@@H]2OC(=O)CCC` [GAGUNIN D], in test [1], 55 µg/mL (≈ 90.6 µM) corresponded to half-maximal inhibition (IC50). Besides, the CC50 in test [2] came to 0.19 µg/mL (≈ 0.313 µM).
In the same order, the values of `CCCC(=O)O[C@H]1C[C@]2(C)[C@H]([C@H]1C(C)C)[C@H]1C=C(C)[C@H](O)[C@H](OC(C)=O)[C@@H](OC(=O)CCC)[C@]1(C)C[C@@H]2OC(=O)CC(C)C` [GAGUNIN M] are 55 µg/mL (≈ 88.6 µM) and 0.71 µg/mL (≈ 1.14 µM).
The corresponding values for `CCCC(=O)O[C@@H]1[C@H](C(C)C)[C@@H]2[C@H]3C=C(C)[C@H](O)[C@H](OC(C)=O)[C@@H](OC(=O)CCC)[C@]3(C)C[C@H](OC(=O)CCC)[C@]2(C)[C@H]1OC(=O)CCC` [GAGUNIN B] are 55 µg/mL (≈ 79.4 µM) and 3.5 µg/mL (≈ 5.05 µM).
The corresponding values for `CCCCC(=O)O[C@@H]1[C@H](C(C)C)[C@@H]2[C@H]3C=C(C)[C@H](O)[C@H](OC(C)=O)[C@@H](OC(=O)CCC)[C@]3(C)C[C@H](OC(=O)CCC)[C@]2(C)[C@H]1OC(=O)CCC` [GAGUNIN K] are 55 µg/mL (≈ 77.8 µM) and 17.5 µg/mL (≈ 24.8 µM).
As for `CCCC(=O)O[C@@H]1[C@H](C(C)C)[C@@H]2[C@H]3C=C(C)[C@H](O)[C@H](OC(C)=O)[C@@H](OC(C)=O)[C@]3(C)C[C@H](OC(=O)CCC)[C@]2(C)[C@H]1OC(=O)CCC` [GAGUNIN P], half-maximal inhibition in test [1] (IC50) required 55 µg/mL (≈ 82.7 µM). In addition, the CC50 in test [2] amounted to 8.5 µg/mL (≈ 12.8 µM).
Take `CC(C)=CCCC(C)/C=C/C=C(\C)[C@H]1CC[C@H](C(=O)O)CC1` (some centres undefined): the outcome in test [1] and in test [2] was inactive.
In test [1], `CCCC(=O)O[C@H]1C[C@]2(C)[C@H]([C@H]1C(C)C)[C@H]1C=C(C)[C@H](O)[C@H](OC(C)=O)[C@@H](OC(=O)CCC)[C@]1(C)C[C@@H]2OC(C)=O` [GAGUNIN L] came in with a half-inhibitory concentration (IC50) of 55 µg/mL (≈ 95 µM). Besides, the CC50 in test [2] is 12.5 µg/mL (≈ 21.6 µM).
In the same order, the values of `CCCC(=O)O[C@@H]1[C@H](C(C)C)[C@@H]2[C@H]3C=C(C)[C@H](O)[C@H](OC(C)=O)[C@@H](OC(=O)CCC)[C@]3(C)C[C@H](OC(C)=O)[C@]2(C)[C@H]1OC(=O)CCC` [GAGUNIN I] are 55 µg/mL (≈ 82.7 µM) and 11.5 µg/mL (≈ 17.3 µM).
In test [1], `CCCC(=O)O[C@@H]1[C@H](C(C)C)[C@@H]2[C@H]3C=C(C)[C@H](OC(C)=O)[C@H](O)[C@@H](OC(=O)CCC)[C@]3(C)C[C@H](OC(=O)CCC)[C@]2(C)[C@H]1OC(=O)CCC` [GAGUNIN O] yielded a half-inhibitory concentration (IC50) of 55 µg/mL (≈ 79.4 µM). In addition, the CC50 in test [2] was 11.1 µg/mL (≈ 16 µM).
The corresponding values for `CCCC(=O)O[C@@H]1[C@H](C(C)C)[C@@H]2[C@H]3C=C(C)[C@H](O)[C@H](OC(C)=O)[C@@H](OC(=O)CCC)[C@]3(C)C[C@H](OC(=O)CCC)[C@]2(C)[C@H]1OC(=O)CC` [GAGUNIN J] are 55 µg/mL (≈ 81 µM) and 9.1 µg/mL (≈ 13.4 µM).
Turning to `CCCC(=O)O[C@@H]1[C@@H](OC(C)=O)[C@@H](O)C(C)=C[C@@H]2[C@H]3[C@@H](C(C)C)[C@@H](OC(=O)CC(C)C)[C@H](OC(=O)CCC)[C@@]3(C)[C@@H](OC(=O)CCC)C[C@]21C` [GAGUNIN A], in test [1], it took 55 µg/mL (≈ 77.8 µM) to reach half-maximal inhibition (IC50). Also, the CC50 in test [2] worked out at 18.1 µg/mL (≈ 25.6 µM).
In the same order, the values of `CCCC(=O)O[C@@H]1[C@H](C(C)C)[C@@H]2[C@H]3C=C(C)[C@H](O)[C@H](OC(C)=O)[C@@H](OC(=O)CCC)[C@]3(C)C[C@H](OC(=O)CCC)[C@]2(C)[C@H]1OC(C)=O` [GAGUNIN C] are 55 µg/mL (≈ 82.7 µM) and 0.37 µg/mL (≈ 0.557 µM).
Compound `CCCC(=O)O[C@H]1C[C@]2(C)[C@H]([C@H]1C(C)C)[C@H]1C=C(C)[C@H](OC(C)=O)[C@H](O)[C@@H](OC(=O)CCC)[C@]1(C)C[C@@H]2OC(C)=O` [GAGUNIN N] yielded an IC50 in test [1] of 55 µg/mL (≈ 95 µM). In test [2], the CC50 was above 50 µg/mL.

In general, IC50 refers to the midpoint of a concentration-inhibition curve. Low values mean inhibition by little substance, high ones a need for much substance.

Source of the values: ChEMBL document CHEMBL1140156, “Polyoxygenated diterpenes from the sponge Phorbas sp” (2008).
